Where “and” joins values, the source holds several entries; their conditions need not be identical. Equal values may be shown once. Read-outs that look alike come from different tables or passages of the source.
Tests used:
[1] = test system: Frankliniella occidentalis; assay: Reference Test Example 9 Pest control test of Frankliniella occidentalis (foliar treatment, single agent); type: in vivo; settings: 72 h
Method: After an air drying process, first instar larvae were released to the leaf disk. Thereafter, the larvae were left to stand in a thermostatic chamber (16 hours of light period-8 hours of dark period) at 25° C. […] Test in duplicate. Mortality of larvae (%)={number of dead larvae/(number of survived larvae+number of dead larvae)}×100

Nilaparvata lugens = assay: Reference Test Example 5 Pest control test of Nilaparvata lugens (foliar treatment, single agent); type: in vivo; settings: 144 h
From the text: (§1) After an air drying process, second instar larvae were released thereto. […] Test in duplicate.

Laodelphax striatellus = assay: Test Example 14 Test with Laodelphax striatellus by soil irrigation treatment (mixture with paddy herbicide); type: in vivo; settings: five days after release
Method: After standing for three days, second instar larvae were released thereto. […] The test was performed in duplicate.

Plautia crossota stali = assay: Reference Test Example 11 Pest control test of Plautia crossota stali (sprayed young apple fruit); type: in vivo; settings: foliar, 144 h
From the text: After an air drying process, the young fruit was placed into a plastic cup, and two adults of Plautia crossota stali were released thereto. […] Mortality of adults (%)={number of dead adults/(number of survived adults+number of dead adults)}×100

[2] = test system: Frankliniella occidentalis; assay: whole plant or invertebrate; settings: Frankliniella occidentalis
Method: After an air drying process, first instar larvae were released thereto. Thereafter, the larvae were left to stand in a thermostatic chamber (16 hours of light period-8 hours of dark period) at 25° C. […] The test was performed in duplicate. Mortality of larvae (%)={number of dead larvae/(number of survived larvae+number of dead larvae)}×100
(A: 100−(mortality of larvae or adults when treated only with Compound P212)
B: 100−(mortality of larvae or adults when treated with only the insecticide imidacloprid, dinotefuran, or acetamiprid))
(§2) Method for Judging Synergistic Effects
When the mortality against Frankliniella occidentalis in the case of a mixture with another agent exceeded the theoretical value given by Colby's equation, a synergistic effect was judged to be present.

[3] = test system: Trialeurodes vaporariorum; assay: Reference Test Example 8 Pest control test of Trialeurodes vaporariorum (leaf disk spray on eggs); type: in vivo; settings: foliar
From the text: Adult greenhouse whiteflies were released to a cucumber in pot culture and allowed to lay eggs overnight. […] Test in duplicate. Mortality of larvae (%)={(number of eggs laid−number of survived larvae)/number of eggs laid)}×100

Laodelphax striatella = assay: Reference Test Example 4 Pest control test of Laodelphax striatella (foliar treatment, single agent); type: in vivo; settings: Laodelphax striatellus, 72 h
From the text: as §1

[4] = test system: Nilaparvata lugens susceptible species (highly susceptible to imidacloprid); assay: Reference Test Example 19 Pest control test of Nilaparvata lugens, imidacloprid susceptible species (soil drench); type: in vivo; settings: for Insecticidal effects against Nilaparvata lugens (death rate %), Susceptible population: soil drench, six days
Method: (§3) Three days after the treatment, ten second instar larvae of Nilaparvata lugens, which had been collected outdoors and proliferated indoors, were each released to the rice seedling. […] Test in duplicate.
(§4) Furthermore, for comparison, the test against a species of Nilaparvata lugens which is highly susceptible to imidacloprid was performed by the same method as described above, and the results thereof are shown in Table 45. […] Meanwhile, the death rates of imidacloprid at 0.05 mg/seedling were (susceptible species) 100%, (resistant population I) 38% and (resistant population II) 69%, and the insecticidal effect thereof was also low even at a high dose. From the above results, it became obvious that Compound P212 and Compound 1-20 have high insecticidal effects even against Nilaparvata lugens resistance against imidacloprid.
(§5) Further, for the origin of test pests, bugs collected outdoors from the Kumamoto prefecture (I) in 2007 and from the Fukuoka prefecture (II) in 2005 as resistant population of Nilaparvata lugens, and bugs collected from the Kagoshima prefecture and then successively reared indoors for a long time as the imidacloprid susceptible population of Nilaparvata lugens were used.

[5] = test system: Lissorhoptrus oryzophilus; assay: Reference Test Example 17 Pest control test of Lissorhoptrus oryzophilus (soil drench, single agent); type: in vivo; settings: throughput of 0.1 mg/seedling, adults, three days after the release
From the text: Two days after the treatment, five adults of Lissorhoptrus oryzophilus were each released thereto. […] Test in duplicate.

Spodoptera litura [6] = assay: whole plant or invertebrate; type: in vivo; settings: Spodoptera litura
Method: After an air drying process, third instar larvae were released thereto. […] The test was performed in duplicate.
as §2

Chilo suppressalis = type: in vivo; settings: for Theoretical value by Colby's equation: Chilo suppressalis; for Mortality of single agent against Chilo suppressalis: soil irrigation, six days after release
Method: After standing for 3 days, second instar larvae were released thereto. […] The test was performed in duplicate.
as §2

Spodoptera litura [7] = assay: Reference Test Example 2 Pest control test of Spodoptera litura (foliar treatment, single agent); type: in vivo; settings: 72 h
From the text: After an air drying process, third instar larvae were released thereto. […] Test in duplicate.

Sogatella furcifera = assay: Reference Test Example 6 Pest control test of Sogatella furcifera (foliar treatment, single agent); type: in vivo; settings: 96 h
From the text: as §1

Aphis gossypii = assay: whole plant or invertebrate; type: in vivo; settings: Aphis gossypii
Method: The test was performed in duplicate.
as §2

[8] = test system: Nilaparvata lugens resistant population II; assay: Reference Test Example 19 Pest control test of Nilaparvata lugens, resistant population II (soil drench); type: in vivo; settings: for Insecticidal effects against Nilaparvata lugens (death rate %), Resistant population II: soil drench, six days
Method: as §3, §4, §5

Oulema oryzae = assay: Reference Test Example 12 Pest control test of Oulema oryzae (topical application); type: in vivo; settings: throughput of 0.5 μg/head; adults; forty eight hours after the treatment
Method: 1 μL(/head) of a drug solution of the compound of Formula (I) prepared at a predetermined concentration with acetone was topically applied and treated to the back of adults collected outdoors by a micro syringe. After the drug treatment, the adults were transferred to rice seedlings and left to stand in a thermostatic chamber at 25° C. so as to obtain 5 heads per stem. […] Test in duplicate. Mortality of adults (%)={number of dead adults/(number of survived adults+number of dead adults)}×100

Rhizoctonia solani = assay: Test Example 12 Test of control of rice sheath blight (Rhizoctonia solani); type: in vivo; settings: single agent 50 ppm; foliar spray; six days after inoculation
Callosobruchus chinensis = type: in vivo
Method: A compound of Formula (I) and the insecticide indicated below, prepared in predetermined concentrations using acetone, were separately topically applied to the back of the same adult Callosobruchus chinensis. […] The test was performed in duplicate. Insect mortality (%)={number of dead insects/(number of survived insects+number of dead insects)}×100
(A: 100−(insect mortality for treatment with only Compound P212)
B: 100−(insect mortality for treatment with only the insecticide fipronil or imidacloprid))
as §2

[9] = foliar, 72 h, read-out: Mortality of single agent against Frankliniella occidentalis

O=C(N=c1ccccn1Cc1ccc(Cl)nc1)C(F)(F)F [Compound P212, N-[1-((6-chloropyridin-3-yl)methyl)pyridin-2(1H)-ylidene]-2,2,2-trifluoroacetamide]
mortality at 500 ppm [1]: ≥ 80%
mortality at 100 ppm (Nilaparvata lugens): ≥ 80%
Mortality of larvae (Laodelphax striatellus) (Laodelphax striatellus; single agent 0.005 mg/seedling): 0%
Mortality of larvae (Laodelphax striatellus) (Laodelphax striatellus; single agent 0.01 mg/seedling): 100%
mortality at 50 ppm (Plautia crossota stali): ≥ 60%
mortality at 10 ppm [2, 9]: 69%
mortality at 20 ppm [2, 9]: 70%
Theoretical value by Colby's equation ([2]; single agent 10 ppm (other component 0)): 69%
Theoretical value by Colby's equation ([2]; single agent 20 ppm (other component 0)): 70%
mortality at 100 ppm [3]: ≥ 80%
mortality at 100 ppm (Laodelphax striatella): ≥ 80%
death rates of larvae ([4]; susceptible species, 0.005 mg/seedling, six days after the release): 100%
Insecticidal effects against Nilaparvata lugens (death rate %), Susceptible population ([4]; throughput 0.005 mg/seedling): 100%
Insecticidal effects against Nilaparvata lugens (death rate %), Susceptible population ([4]; throughput 0.05 mg/seedling): 100%
mortality [5]: ≥ 80%
mortality at 50 ppm (Spodoptera litura [6]; foliar, 72 h, read-out: Mortality of single agent against Spodoptera litura, single agent 50 ppm, cabbage leaf disk spray, three days): 10%
Theoretical value by Colby's equation (Spodoptera litura [6]; single agent 50 ppm (other component 0)): 10%
Theoretical value by Colby's equation (Chilo suppressalis; single agent 0.002 mg/seedling (other component 0)): 40%
Theoretical value by Colby's equation (Chilo suppressalis; single agent 0.01 mg/seedling (other component 0)): 33%
Mortality of single agent against Chilo suppressalis (Chilo suppressalis; single agent 0.002 mg/seedling): 40%
Mortality of single agent against Chilo suppressalis (Chilo suppressalis; single agent 0.01 mg/seedling): 33%
mortality at 500 ppm (Spodoptera litura [7]): ≥ 80%
mortality at 100 ppm (Sogatella furcifera): ≥ 80%
mortality at 0.313 ppm (Aphis gossypii; foliar, 72 h, read-out: Mortality of single agent against Aphis gossypii): 45%
Theoretical value by Colby's equation (Aphis gossypii; single agent 0.313 ppm (other component 0)): 45%
death rates of larvae ([8]; resistant population II, 0.005 mg/seedling, six days after the release): 100%
Insecticidal effects against Nilaparvata lugens (death rate %), Resistant population II ([8]; throughput 0.005 mg/seedling): 100%
Insecticidal effects against Nilaparvata lugens (death rate %), Resistant population II ([8]; throughput 0.05 mg/seedling): 100%
mortality (Oulema oryzae): ≥ 80%
Preventive value (Sheath blight test, lesion height) (Rhizoctonia solani): 14 and 9
Theoretical value by Colby's equation (Callosobruchus chinensis; Callosobruchus chinensis, single agent 0.2 ng/head (other component 0)): 20%
Mortality of single agent against Callosobruchus chinensis (Callosobruchus chinensis; single agent 0.2 ng/head, topical, one day): 20%
